Assay type in all cases: cell-based
The test system of assay [1] is polio virus strain 1. The experiment in a line: organism not typed. As to conditions: read-out: % inh.
Assay [2] deals with Ljungan virus strain 145. The experiment in a line: CPE inhibition in mammalian cell culture, LV145. As to conditions: Parechovirus B; LV145, Conc. 10.0 μM.
In assay [3] the test system is coxsackie B virus strain 2. The experiment in a line: CPE inhibition in mammalian cell culture, Cox-B2. As to conditions: read-out: % inh.

Regarding `Cc1cc(NCCc2ccccc2)n2nc(C)c(-c3ccc(F)cc3)c2n1` [Ex. 14, 3-(4-fluorophenyl)-2,5-dimethyl-N-phenethyl-pyrazolo[1,5-a]pyrimidin-7-amine], the inhibition at 10 µM in assay [1] was 73%.
As for `COc1ccc(CCNc2cc(C)nc3c(-c4ccc(F)cc4)c(C)nn23)cc1OC` [Ex. 15, N-[2-(3,4-dimethoxyphenyl)ethyl]-3-(4-fluorophenyl)-2,5-dimethyl-pyrazolo[1,5-a]pyrimidin-7-amine], the inhibition at 10 µM in assay [1] was 75%.
`Cc1cc(NC(C)c2ccccc2)n2nc(C)c(-c3ccc(F)cc3)c2n1` (stereo not drawn) [Ex. 17, 3-(4-fluorophenyl)-2,5-dimethyl-N-(1-phenylethyl)pyrazolo[1,5-a]pyrimidin-7-amine] came in with an inhibition at 10 µM in assay [2] of 75%.
For `Cc1cc(NCc2ccccc2)n2ncc(-c3ccc(F)cc3)c2n1` [Ex. 18, N-benzyl-3-(4-fluorophenyl)-5-methyl-pyrazolo[1,5-a]pyrimidin-7-amine], in assay [1], the inhibition at 10 µM stood at 51%.
In turn, `COc1ccc(CCNc2cc(C)nc3c(-c4ccc(F)cc4)cnn23)cc1OC` [Ex. 19, N-[2-(3,4-dimethoxyphenyl)ethyl]-3-(4-fluorophenyl)-5-methyl-pyrazolo[1,5-a]pyrimidin-7-amine] returned an inhibition at 10 µM in assay [2] of 34%.
In the case of `Cc1cc(NCc2ccccc2)n2ncc(-c3ccccc3)c2n1` [Ex. 21, N-benzyl-5-methyl-3-phenyl-pyrazolo[1,5-a]pyrimidin-7-amine], the inhibition at 10 µM in assay [1] amounted to 78%.
As for `COc1ccc(CCNc2cc(C)nc3c(-c4ccccc4)cnn23)cc1OC` [Ex. 22, N-[2-(3,4-dimethoxyphenyl)ethyl]-5-methyl-3-phenyl-pyrazolo[1,5-a]pyrimidin-7-amine], the inhibition at 10 µM in assay [3] came out at 44%.
Regarding `CC(C)(C)c1cc(NCCCn2ccnc2)n2ncc(-c3ccccc3)c2n1` [Ex. 23, 5-tert-butyl-N-(3-imidazol-1-ylpropyl)-3-phenyl-pyrazolo[1,5-a]pyrimidin-7-amine], in assay [1], the inhibition at 10 µM was determined as 94%.
Consider `CCCc1cc(NCCCn2ccnc2)n2nc(C)c(-c3ccccc3)c2n1` [Ex. 24, N-(3-imidazol-1-ylpropyl)-2-methyl-3-phenyl-5-propyl-pyrazolo[1,5-a]pyrimidin-7-amine], for which the inhibition at 10 µM in assay [1] came to 86%.
On to `Cc1cc(NCCc2ccccc2)n2ncc(-c3ccc(Cl)cc3)c2n1` [Ex. 26, 3-(4-chlorophenyl)-5-methyl-N-phenethyl-pyrazolo[1,5-a]pyrimidin-7-amine], for which the inhibition at 10 µM in assay [3] was 30%.
`COc1ccc(CCNc2cc(C)nc3c(-c4ccc(Cl)cc4)cnn23)cc1OC` [Ex. 27, 3-(4-chlorophenyl)-N-[2-(3,4-dimethoxyphenyl)ethyl]-5-methyl-pyrazolo[1,5-a]pyrimidin-7-amine]: the inhibition at 10 µM in assay [1] turned out to be 35%.
For the molecule `Cc1cc(NCCCn2ccnc2)n2ncc(-c3ccc(Cl)cc3)c2n1` [Ex. 28, 3-(4-chlorophenyl)-N-(3-imidazol-1-ylpropyl)-5-methyl-pyrazolo[1,5-a]pyrimidin-7-amine], the inhibition at 10 µM in assay [1] is 72%.
Turning to `COc1ccc(CCNc2cc(C)nc3c(-c4ccc(C)cc4)cnn23)cc1OC` [Ex. 29, N-[2-(3,4-dimethoxyphenyl)ethyl]-5-methyl-3-(p-tolyl)pyrazolo[1,5-a]pyrimidin-7-amine], the inhibition at 10 µM in assay [3] was determined as 62%.
Consider `CCc1nn2c(NCCc3ccc(OC)c(OC)c3)cc(C)nc2c1-c1ccccc1` [Ex. 30, N-[2-(3,4-dimethoxyphenyl)ethyl]-2-ethyl-5-methyl-3-phenyl-pyrazolo[1,5-a]pyrimidin-7-amine], for which the inhibition at 10 µM in assay [2] is 100%.
As to `Cc1ccc(CCNc2cc(C)nc3c(-c4ccc(Cl)cc4)c(C)nn23)cc1` [Ex. 32, 3-(4-chlorophenyl)-2,5-dimethyl-N-[2-(p-tolyl)ethyl]pyrazolo[1,5-a]pyrimidin-7-amine], in assay [1], the inhibition at 10 µM came out at 25%.
In the case of `Cc1cc(NCc2ccccn2)n2nc(C)c(-c3ccc(F)cc3)c2n1` [Ex. 37, 3-(4-fluorophenyl)-2,5-dimethyl-N-(2-pyridylmethyl)pyrazolo[1,5-a]pyrimidin-7-amine], the inhibition at 10 µM in assay [3] was determined as 78%.
Consider `Cc1cc(NCc2cccnc2)n2nc(C)c(-c3ccccc3)c2n1` [Ex. 39, 2,5-dimethyl-3-phenyl-N-(3-pyridylmethyl)pyrazolo[1,5-a]pyrimidin-7-amine], for which the inhibition at 1 µM in assay [1] came to 71%.
With `Cc1cc(NCc2ccccn2)n2nc(C)c(-c3ccc(Cl)cc3)c2n1` [Ex. 42, 3-(4-chlorophenyl)-2,5-dimethyl-N-(2-pyridylmethyl)pyrazolo[1,5-a]pyrimidin-7-amine], in assay [1], the inhibition at 1 µM was 96%.
For `Cc1cc(NCCCn2ccnc2)n2nc(C)c(-c3ccc(Cl)cc3)c2n1` [Ex. 44, 3-(4-chlorophenyl)-N-(3-imidazol-1-ylpropyl)-2,5-dimethyl-pyrazolo[1,5-a]pyrimidin-7-amine], in assay [1], the inhibition at 1 µM was 70%.
Still for that read-out and setting: the same measure for `COc1ccc(-c2c(C)nn3c(Nc4ccc(C)cc4)cc(C)nc23)cc1OC` [Ex. 48, 3-(3,4-dimethoxyphenyl)-2,5-dimethyl-N-(p-tolyl)pyrazolo[1,5-a]pyrimidin-7-amine]: 79%.
As for `COc1ccc(Nc2cc(C)nc3c(-c4ccc(OC)c(OC)c4)c(C)nn23)cc1` [Ex. 49, 3-(3,4-dimethoxyphenyl)-N-(4-methoxyphenyl)-2,5-dimethyl-pyrazolo[1,5-a]pyrimidin-7-amine], the inhibition at 1 µM in assay [3] is 80%.
As to `COc1ccc(-c2c(C)nn3c(Nc4cccc(C)c4)cc(C)nc23)cc1OC` [Ex. 50, 3-(3,4-dimethoxyphenyl)-2,5-dimethyl-N-(m-tolyl)pyrazolo[1,5-a]pyrimidin-7-amine], the inhibition at 1 µM in assay [1] amounted to 81%.
Turning to `COc1ccc(-c2c(C)nn3c(Nc4ccc(F)cc4)cc(C)nc23)cc1OC` [Ex. 53, 3-(3,4-dimethoxyphenyl)-N-(4-fluorophenyl)-2,5-dimethyl-pyrazolo[1,5-a]pyrimidin-7-amine], the inhibition at 10 µM in assay [1] was determined as 84%.
In the case of `CCOc1ccc(Nc2cc(C)nc3c(-c4ccc(OC)c(OC)c4)c(C)nn23)cc1` [Ex. 54, 3-(3,4-dimethoxyphenyl)-N-(4-ethoxyphenyl)-2,5-dimethyl-pyrazolo[1,5-a]pyrimidin-7-amine], the inhibition at 1 µM in assay [1] is 89%.
As for `COc1ccc(-c2c(C)nn3c(Nc4ccc(NC(C)=O)cc4)cc(C)nc23)cc1OC` [Ex. 58, N-[4-[[3-(3,4-dimethoxyphenyl)-2,5-dimethyl-pyrazolo[1,5-a]pyrimidin-7-yl]amino]phenyl]acetamide], the inhibition at 0.1 µM in assay [1] is 74%.
Regarding `COc1ccc(-c2c(C)nn3c(Nc4ccc(Cl)c(Cl)c4)cc(C)nc23)cc1OC` [Ex. 59, N-(3,4-dichlorophenyl)-3-(3,4-dimethoxyphenyl)-2,5-dimethyl-pyrazolo[1,5-a]pyrimidin-7-amine], the inhibition at 10 µM in assay [3] was 88%.
`CCc1ccc(Nc2cc(C)nc3c(-c4ccc(OC)c(OC)c4)c(C)nn23)cc1` [Ex. 62, 3-(3,4-dimethoxyphenyl)-N-(4-ethylphenyl)-2,5-dimethyl-pyrazolo[1,5-a]pyrimidin-7-amine]: in assay [1], the inhibition at 1 µM was found to be 97%.
On the same count and under the same terms, the same measure for `CCCCc1ccc(Nc2cc(C)nc3c(-c4ccc(OC)c(OC)c4)c(C)nn23)cc1` [Ex. 63, N-(4-butylphenyl)-3-(3,4-dimethoxyphenyl)-2,5-dimethyl-pyrazolo[1,5-a]pyrimidin-7-amine]: 87%; for `COc1ccc(-c2c(C)nn3c(Nc4cc(Cl)cc(Cl)c4)cc(C)nc23)cc1OC` [Ex. 64, N-(3,5-dichlorophenyl)-3-(3,4-dimethoxyphenyl)-2,5-dimethyl-pyrazolo[1,5-a]pyrimidin-7-amine]: 20%.
As to `COc1ccc(-c2c(C)nn3c(NCc4cccnc4)cc(C)nc23)cc1` [Ex. 65, 3-(4-methoxyphenyl)-2,5-dimethyl-N-(3-pyridylmethyl)pyrazolo[1,5-a]pyrimidin-7-amine], the inhibition at 1 µM in assay [3] turned out to be 91%.
Regarding `COc1ccc(-c2c(C)nn3c(NCc4ccncc4)cc(C)nc23)cc1` [Ex. 66, 3-(4-methoxyphenyl)-2,5-dimethyl-N-(4-pyridylmethyl)pyrazolo[1,5-a]pyrimidin-7-amine], the inhibition at 0.01 µM in assay [1] was determined as 100%.
Take `COc1ccc(-c2c(C)nn3c(NCCCn4ccnc4)cc(C)nc23)cc1` [Ex. 67, N-(3-imidazol-1-ylpropyl)-3-(4-methoxyphenyl)-2,5-dimethyl-pyrazolo[1,5-a]pyrimidin-7-amine]: in assay [1], the inhibition at 1 µM was determined as 63%.
For `Cc1cc(NCc2cccnc2)n2nc(C)c(-c3cccs3)c2n1` [Ex. 69, 2,5-dimethyl-N-(3-pyridylmethyl)-3-(2-thienyl)pyrazolo[1,5-a]pyrimidin-7-amine], the inhibition at 10 µM in assay [3] is 65%.
For `Cc1cc(NCc2ccncc2)n2nc(C)c(-c3cccs3)c2n1` [Ex. 70, 2,5-dimethyl-N-(4-pyridylmethyl)-3-(2-thienyl)pyrazolo[1,5-a]pyrimidin-7-amine], the inhibition at 10 µM in assay [1] was 89%.
On the same count and under the same terms, the figure for `Cc1cc(NCCCn2ccnc2)n2nc(C)c(-c3cccs3)c2n1` [Ex. 71, N-(3-imidazol-1-ylpropyl)-2,5-dimethyl-3-(2-thienyl)pyrazolo[1,5-a]pyrimidin-7-amine] is 72%.
Turning to `COc1ccc(-c2c(C)nn3c(NCc4ccnc(C)n4)cc(C)nc23)cc1OC` [Ex. 87, 3-(3,4-dimethoxyphenyl)-2,5-dimethyl-N-[(2-methylpyrimidin-4-yl)methyl]pyrazolo[1,5-a]pyrimidin-7-amine], in assay [1], the inhibition at 0.1 µM was 100%.
Turning to `COc1ccc(-c2c(C)nn3c(NCCc4ccncc4)cc(C)nc23)cc1OC` [Ex. 89, 3-(3,4-dimethoxyphenyl)-2,5-dimethyl-N-[2-(4-pyridyl)ethyl]pyrazolo[1,5-a]pyrimidin-7-amine], in assay [3], the inhibition at 1 µM is 100%.
In the case of `COC(=O)c1ccc(-c2c(C)nn3c(NCc4ccc(F)cc4)cc(C)nc23)cc1` [Ex. 107, methyl 4-[7-[(4-fluorophenyl)methylamino]-2,5-dimethyl-pyrazolo[1,5-a]pyrimidin-3-yl]benzoate], the inhibition at 1 µM in assay [1] worked out at 21%.
Regarding `CCOc1ccc(-c2c(C)nn3c(NCc4ccc(F)cc4)cc(C)nc23)cc1OCC` [Ex. 109, 3-(3,4-diethoxyphenyl)-N-[(4-fluorophenyl)methyl]-2,5-dimethyl-pyrazolo[1,5-a]pyrimidin-7-amine], the inhibition at 1 µM in assay [1] came out at 88%.

The values above are taken from patent US9963455B2, “Pyrazolo[1,5-a]pyrimidines as antiviral compounds” (Curovir AB, priority 2014, dated 2018).
